# Data as given in ChEMBL document CHEMBL1201862, “PubChem BioAssay data set” (2004).
#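 96-well plates; 48 h exposure; 5 concentrations. Endpoints by linear interpolation between flanking doses. Not reached: highest tested concentration assigned. GI50 = concentration required for 50% inhibition of growth.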 Active and inactive are the calls of the source. No stated cut-off is given here; in the data, active = GI50 up to about 1.1 µM and inactive = higher.
# Assays:
# Test in all cases: NCI anticancer screen, dose series, 48 h
# [1] = test system: A498
# [2] = test system: A549
# [3] = test system: COLO 205
# [4] = test system: EKVX
# [5] = test system: HL-60
# [6] = test system: HOP-62
# [7] = test system: KM12
# [8] = test system: M14
# [9] = test system: NCI-H23
# [10] = test system: NCI-H460
# [11] = test system: RPMI-8226
# [12] = test system: RXF 393
# [13] = test system: SF-268
# [14] = test system: SK-MEL-5
# [15] = test system: SR
# [16] = test system: UACC-62
# [17] = test system: UO-31
# [18] = test system: HCC 2998
Structure (SMILES),GI50 [1],GI50 [2],GI50 [3],GI50 [4],GI50 [5],GI50 [6],GI50 [7],GI50 [8],GI50 [9],GI50 [10],GI50 [11],GI50 [12],GI50 [13],GI50 [14],GI50 [15],GI50 [16],GI50 [17],GI50 [18]
Cc1cc2occ(-c3ccc(Cl)cc3)c2c(=O)o1,> 100 µM (inactive),> 100 µM (inactive),> 100 µM (inactive),> 100 µM (inactive),> 100 µM (inactive),> 100 µM (inactive),> 100 µM (inactive),88.1 µM (inactive),> 100 µM (inactive),> 100 µM (inactive),61.4 µM (inactive),> 100 µM (inactive),> 100 µM (inactive),> 100 µM (inactive),38.1 µM (inactive),> 100 µM (inactive),58.1 µM (inactive),
COc1ccc(OC)c(/C=N/N=C(\N)NO)c1,> 10 µM (inactive),8.22 µM (inactive),10.6 µM (inactive),13.3 µM (inactive),25.4 µM (inactive),29.6 µM (inactive),22.4 µM (inactive),20.1 µM (inactive),27 µM (inactive),15 µM (inactive),,39.5 µM (inactive),23.3 µM (inactive),,45.2 µM (inactive),4.61 µM (inactive),14.2 µM (inactive),
C[C@H]1C=C2C(=O)O[C@H]3CC[C@@H](C1)[C@@]23O,10.6 µM (inactive),11.2 µM (inactive),3.26 µM (inactive),2.67 µM (inactive),2.12 µM (inactive),> 10 µM (inactive),2.92 µM (inactive),3.83 µM (inactive),2.8 µM (inactive),6 µM (inactive),29.6 µM (inactive),2.79 µM (inactive),3.13 µM (inactive),4.13 µM (inactive),0.233 µM (active),3.18 µM (inactive),18.2 µM (inactive),13.8 µM (inactive)
O=C1c2cccc3cc([N+](=O)[O-])cc(c23)C(=O)N1CCNCCNCCNCCN1C(=O)c2cccc3cc([N+](=O)[O-])cc(c23)C1=O,0.0128 µM (active),< 0.001 µM (active),0.01 µM (active),0.112 µM (active),0.01 µM (active),0.00143 µM (active),< 0.001 µM (active),0.0188 µM (active),0.00193 µM (active),< 0.001 µM (active),0.01 µM (active),0.122 µM (active),0.00564 µM (active),0.152 µM (active),0.01 µM (active),0.00322 µM (active),0.033 µM (active),0.01 µM (active)
OC1(C(Sc2ccccc2)Sc2ccccc2)CCCCCC1,34 µM (inactive),28 µM (inactive),23.6 µM (inactive),21.2 µM (inactive),24 µM (inactive),21.9 µM (inactive),34.9 µM (inactive),18.7 µM (inactive),35.8 µM (inactive),28.2 µM (inactive),21.5 µM (inactive),> 10 µM (inactive),33.1 µM (inactive),16.1 µM (inactive),20.8 µM (inactive),11.5 µM (inactive),3.13 µM (inactive),
CC(=O)OC1CCC2C(=CCC3C2(C)C(=O)CC2(C)C(C4(C)OC(C(C)C)=CC4=O)C(O)CC32C)C1(C)C (centres undefined),> 100 µM (inactive),31.6 µM (inactive),56 µM (inactive),57.3 µM (inactive),,> 100 µM (inactive),> 10 µM (inactive),23.3 µM (inactive),63.2 µM (inactive),27 µM (inactive),22 µM (inactive),,28.1 µM (inactive),23.5 µM (inactive),28.4 µM (inactive),19.1 µM (inactive),40.3 µM (inactive),
CCOC(=O)NC/C=C/CO,> 100 µM (inactive),> 100 µM (inactive),> 100 µM (inactive),,> 100 µM (inactive),> 100 µM (inactive),> 100 µM (inactive),> 100 µM (inactive),,> 100 µM (inactive),> 100 µM (inactive),> 100 µM (inactive),> 100 µM (inactive),> 100 µM (inactive),> 100 µM (inactive),> 100 µM (inactive),> 100 µM (inactive),> 100 µM (inactive)
CC1OC(CC2C=CCc3c(O)c4c(c(O)c32)C(=O)c2ccccc2C4=O)CC(NC(=O)C(F)(F)F)C1O (centres undefined),4.69 µM (inactive),,13.8 µM (inactive),12.6 µM (inactive),11.8 µM (inactive),6.49 µM (inactive),15.9 µM (inactive),4.29 µM (inactive),7.59 µM (inactive),5.25 µM (inactive),4.28 µM (inactive),2.52 µM (inactive),10.3 µM (inactive),11.2 µM (inactive),3.7 µM (inactive),4.71 µM (inactive),20 µM (inactive),29.4 µM (inactive)
Oc1cc2c(cc1O)-c1[nH]ncc1CC2,25.4 µM (inactive),42.4 µM (inactive),26.1 µM (inactive),10.2 µM (inactive),24.3 µM (inactive),55.5 µM (inactive),49.5 µM (inactive),72.4 µM (inactive),35.4 µM (inactive),43.3 µM (inactive),,,25.6 µM (inactive),35.1 µM (inactive),27.8 µM (inactive),27.8 µM (inactive),18.4 µM (inactive),22.4 µM (inactive)
Cc1ccc(Sc2ccccc2N)cc1,30.8 µM (inactive),39.3 µM (inactive),40 µM (inactive),54.6 µM (inactive),18.9 µM (inactive),6.53 µM (inactive),25.5 µM (inactive),32.7 µM (inactive),26.7 µM (inactive),30.4 µM (inactive),19.3 µM (inactive),18.7 µM (inactive),21 µM (inactive),20.7 µM (inactive),,53.2 µM (inactive),12.8 µM (inactive),40.8 µM (inactive)
CCc1cccc(C(C)C)c1NC(=O)CCl,,> 100 µM (inactive),,> 100 µM (inactive),22.4 µM (inactive),,> 100 µM (inactive),46.3 µM (inactive),> 100 µM (inactive),,> 100 µM (inactive),,> 100 µM (inactive),,71.4 µM (inactive),45.1 µM (inactive),> 100 µM (inactive),
Cc1c(-c2coc(-c3ccc(Cl)cc3)n2)c(=O)n(-c2ccccc2)n1C,> 100 µM (inactive),> 100 µM (inactive),> 100 µM (inactive),> 100 µM (inactive),> 100 µM (inactive),> 100 µM (inactive),> 100 µM (inactive),> 100 µM (inactive),> 100 µM (inactive),> 100 µM (inactive),> 100 µM (inactive),,> 100 µM (inactive),> 100 µM (inactive),> 100 µM (inactive),> 100 µM (inactive),> 100 µM (inactive),9.4 µM (inactive)
